Reference: ChEMBL document CHEMBL5584266, “Novel selective proline-based peptidomimetics for human cathepsin K inhibition” (Bioorg Med Chem Lett, 2024)

Legend:
[1] = target: Cathepsin B (Homo sapiens, UniProt P07858); assay: Binding affinity to human Cathepsin B assessed as inhibition constant
[2] = target: Procathepsin L (Homo sapiens, UniProt P07711); assay: Binding affinity to human Cathepsin L assessed as inhibition constant
[3] = target: T1, Cathepsin K (Homo sapiens, UniProt P43235); assay: Binding affinity to human Cathepsin K assessed as inhibition constant
T1 sequence (P43235 whole entry): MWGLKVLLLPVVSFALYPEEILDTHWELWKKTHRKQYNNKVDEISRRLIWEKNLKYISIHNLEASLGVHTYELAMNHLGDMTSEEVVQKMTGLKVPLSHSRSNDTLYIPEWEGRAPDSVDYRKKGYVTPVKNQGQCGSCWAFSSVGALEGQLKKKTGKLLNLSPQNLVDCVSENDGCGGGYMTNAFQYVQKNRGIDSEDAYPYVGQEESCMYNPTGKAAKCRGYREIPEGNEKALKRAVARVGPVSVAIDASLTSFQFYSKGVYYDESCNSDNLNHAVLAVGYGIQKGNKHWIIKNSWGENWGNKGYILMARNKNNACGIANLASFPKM

[4] = target: Cathepsin S (Homo sapiens, UniProt P25774); assay: Binding affinity to human Cathepsin S assessed as inhibition constant
Chain of Cathepsin S (P25774 whole entry): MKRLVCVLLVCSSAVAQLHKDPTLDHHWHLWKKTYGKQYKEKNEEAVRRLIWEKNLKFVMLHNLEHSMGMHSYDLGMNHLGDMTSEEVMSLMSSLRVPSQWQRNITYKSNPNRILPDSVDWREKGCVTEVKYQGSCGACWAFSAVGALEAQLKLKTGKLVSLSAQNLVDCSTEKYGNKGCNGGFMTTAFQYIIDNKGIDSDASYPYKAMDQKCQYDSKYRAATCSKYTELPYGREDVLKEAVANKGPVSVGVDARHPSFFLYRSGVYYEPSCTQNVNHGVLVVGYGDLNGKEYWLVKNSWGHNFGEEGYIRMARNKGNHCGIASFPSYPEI

Chain of Procathepsin L (P07711 whole entry): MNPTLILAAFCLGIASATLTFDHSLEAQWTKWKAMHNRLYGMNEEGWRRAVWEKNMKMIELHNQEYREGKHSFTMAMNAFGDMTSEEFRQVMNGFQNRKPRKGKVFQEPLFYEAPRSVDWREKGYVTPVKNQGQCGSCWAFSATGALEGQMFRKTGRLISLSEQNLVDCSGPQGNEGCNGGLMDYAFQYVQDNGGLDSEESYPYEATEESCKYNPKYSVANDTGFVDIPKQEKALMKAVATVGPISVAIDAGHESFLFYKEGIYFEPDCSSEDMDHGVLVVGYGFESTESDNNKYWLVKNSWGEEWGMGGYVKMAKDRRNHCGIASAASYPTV

Structure (SMILES) | Ki [1] [µM] | Ki ([2]; read-out: pKi (converted)) [µM] | Ki ([3]; read-out: pKi (converted)) [µM] | Ki ([2]; read-out: Ki) [µM] | Ki [4] [µM] | Ki ([3]; read-out: Ki) [µM]
C[C@H]1C[C@@H](C(=O)NC2(C#N)CC2)N(S(=O)(=O)c2cc(C(F)(F)F)nn2C)C1 | > 100 | > 100 |  |  |  | 
C[C@H]1C[C@@H](C(=O)NC2(C#N)CC2)N(C(=O)c2cc(C(F)(F)F)nn2C)C1 | > 100 | > 100 |  |  |  | 
CC(C)(F)C[C@H](N[C@@H](c1ccc(-c2ccc(S(C)(=O)=O)cc2)cc1)C(F)(F)F)C(=O)NC1(C#N)CC1 [ODANACATIB] |  |  | 0.0002 |  |  | 
C[C@H]1C[C@@H](C(=O)NC2(C#N)CC2)N(C(=O)c2cc(C(C)(C)C)nn2C)C1 | > 100 | > 100 |  |  |  | 
C[C@H]1C[C@@H](C(=O)NC2(C#N)CC2)N(C(=O)OC(C)(C)C)C1 | > 100 | > 100 |  |  |  | 
C[C@H]1C[C@@H](C(=O)NC2(C#N)CC2)N(C(=O)Cc2ccccc2)C1 | > 100 | > 100 |  |  |  | 
C[C@H]1C[C@@H](C(=O)NC2(C#N)CC2)N(C(=O)c2ccccc2)C1 | > 100 | > 100 |  |  |  | 
CC(C)C[C@H](NC(=O)c1cc(C(C)(C)C)nn1C)C(=O)NC1(C#N)CC1 | > 100 | 0.00158 |  | ~0.008 | 0.0794 | ~0.008
